Common to all, as to assay: Kinase profiling, Invitrogen Z'-LYTE
What all share (assay type): biochemical
Holding throughout (conditions): Table 2

One experiment deals with T1, EEF2K (Homo sapiens, UniProt O00418).
T1 construct: purchased Invitrogen
On the procedure: (§1) Kinase profiling was conducted using Invitrogen Z'-LYTE screening protocol and assay conditions found at www.invitrogen.com. Compound (2) inhibited PLK1 completely at 5 μM.

The target in a further experiment is T2, CSK (Homo sapiens, UniProt P41240).
T2 construct: purchased Invitrogen
T2 sequence (P41240 whole entry): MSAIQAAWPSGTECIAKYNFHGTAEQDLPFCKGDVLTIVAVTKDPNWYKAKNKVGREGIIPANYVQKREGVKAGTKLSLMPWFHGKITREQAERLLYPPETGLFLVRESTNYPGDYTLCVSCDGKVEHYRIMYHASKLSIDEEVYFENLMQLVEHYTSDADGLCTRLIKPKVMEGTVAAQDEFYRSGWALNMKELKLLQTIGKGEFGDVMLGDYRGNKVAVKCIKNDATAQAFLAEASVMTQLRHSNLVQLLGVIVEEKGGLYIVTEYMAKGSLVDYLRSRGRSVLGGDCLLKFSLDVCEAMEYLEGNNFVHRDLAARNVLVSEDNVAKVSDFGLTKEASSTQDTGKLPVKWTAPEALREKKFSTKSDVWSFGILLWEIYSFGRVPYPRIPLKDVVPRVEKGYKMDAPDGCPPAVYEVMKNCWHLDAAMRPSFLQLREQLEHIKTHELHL
On the procedure:
as §1

For another experiment, the target named is T3, PRKX (Homo sapiens, UniProt P51817).
T3 construct: purchased Invitrogen
T3 sequence (P51817 1-358): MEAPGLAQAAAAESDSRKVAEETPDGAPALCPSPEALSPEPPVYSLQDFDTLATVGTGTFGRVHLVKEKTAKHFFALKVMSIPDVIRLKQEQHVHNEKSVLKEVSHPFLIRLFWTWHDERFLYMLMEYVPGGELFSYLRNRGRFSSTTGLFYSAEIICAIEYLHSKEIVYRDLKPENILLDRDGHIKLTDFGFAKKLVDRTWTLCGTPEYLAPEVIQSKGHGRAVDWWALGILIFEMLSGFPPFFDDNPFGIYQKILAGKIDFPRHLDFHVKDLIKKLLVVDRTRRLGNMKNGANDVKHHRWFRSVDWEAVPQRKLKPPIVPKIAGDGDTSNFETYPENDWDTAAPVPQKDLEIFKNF
On the procedure:
as §1

For a further experiment, the target named is T4, PRKD1 (PKC mu) (Homo sapiens, UniProt Q15139).
T4 construct: purchased Invitrogen
T4 sequence (Q15139 1-912): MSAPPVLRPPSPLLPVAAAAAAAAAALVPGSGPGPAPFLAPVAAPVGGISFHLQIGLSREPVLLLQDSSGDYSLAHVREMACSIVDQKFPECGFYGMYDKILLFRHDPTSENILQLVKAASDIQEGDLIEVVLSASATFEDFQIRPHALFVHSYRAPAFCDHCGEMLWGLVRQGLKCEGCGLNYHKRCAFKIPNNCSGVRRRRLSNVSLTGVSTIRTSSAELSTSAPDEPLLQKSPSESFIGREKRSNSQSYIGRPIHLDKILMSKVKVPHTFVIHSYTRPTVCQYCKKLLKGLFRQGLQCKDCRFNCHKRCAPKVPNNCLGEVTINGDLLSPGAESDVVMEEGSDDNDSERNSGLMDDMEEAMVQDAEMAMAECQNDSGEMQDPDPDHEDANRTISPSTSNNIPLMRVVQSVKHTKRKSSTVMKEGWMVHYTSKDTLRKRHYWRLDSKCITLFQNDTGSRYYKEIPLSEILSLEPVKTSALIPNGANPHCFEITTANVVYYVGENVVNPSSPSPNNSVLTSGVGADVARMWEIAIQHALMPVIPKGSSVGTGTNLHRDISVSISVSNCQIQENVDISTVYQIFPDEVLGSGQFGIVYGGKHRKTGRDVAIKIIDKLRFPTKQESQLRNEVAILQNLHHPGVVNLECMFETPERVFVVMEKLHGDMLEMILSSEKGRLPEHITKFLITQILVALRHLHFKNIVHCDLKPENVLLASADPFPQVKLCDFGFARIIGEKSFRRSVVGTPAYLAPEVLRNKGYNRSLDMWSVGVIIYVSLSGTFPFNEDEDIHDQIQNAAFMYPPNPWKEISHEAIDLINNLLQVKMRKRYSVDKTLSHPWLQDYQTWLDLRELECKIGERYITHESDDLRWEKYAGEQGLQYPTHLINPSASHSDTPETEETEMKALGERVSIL
On the procedure:
as §1

Another experiment deals with T5, FLT3 D835Y (Homo sapiens, UniProt P36888, D835Y).
T5 construct: purchased Invitrogen
T5 sequence (P36888 27-993 D835Y): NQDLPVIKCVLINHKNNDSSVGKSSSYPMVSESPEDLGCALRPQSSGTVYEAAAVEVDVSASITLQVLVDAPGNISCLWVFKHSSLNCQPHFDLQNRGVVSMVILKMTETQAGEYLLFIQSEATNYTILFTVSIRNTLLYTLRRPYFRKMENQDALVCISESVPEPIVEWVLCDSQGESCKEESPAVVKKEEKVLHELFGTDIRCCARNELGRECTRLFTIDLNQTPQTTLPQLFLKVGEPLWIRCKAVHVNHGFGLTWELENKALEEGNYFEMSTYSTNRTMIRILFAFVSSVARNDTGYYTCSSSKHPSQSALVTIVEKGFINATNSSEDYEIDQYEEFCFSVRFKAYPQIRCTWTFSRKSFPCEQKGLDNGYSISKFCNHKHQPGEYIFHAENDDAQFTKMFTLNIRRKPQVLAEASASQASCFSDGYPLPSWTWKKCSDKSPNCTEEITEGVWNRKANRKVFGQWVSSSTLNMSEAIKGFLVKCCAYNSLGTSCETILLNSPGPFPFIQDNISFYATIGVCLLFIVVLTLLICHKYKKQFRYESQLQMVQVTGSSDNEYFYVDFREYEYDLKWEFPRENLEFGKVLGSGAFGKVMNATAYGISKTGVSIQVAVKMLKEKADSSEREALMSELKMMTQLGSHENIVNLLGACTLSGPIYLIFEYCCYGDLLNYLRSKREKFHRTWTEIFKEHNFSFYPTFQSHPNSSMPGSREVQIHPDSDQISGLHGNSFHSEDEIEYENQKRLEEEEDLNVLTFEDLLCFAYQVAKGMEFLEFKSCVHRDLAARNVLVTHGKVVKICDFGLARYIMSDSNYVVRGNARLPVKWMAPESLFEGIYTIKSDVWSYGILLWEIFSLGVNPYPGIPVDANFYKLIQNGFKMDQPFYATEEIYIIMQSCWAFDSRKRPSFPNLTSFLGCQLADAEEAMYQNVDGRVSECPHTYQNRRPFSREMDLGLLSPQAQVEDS
On the procedure:
as §1

In another experiment the target is T6, FGR (Homo sapiens, UniProt P09769).
T6 construct: purchased Invitrogen
T6 sequence (P09769 whole entry): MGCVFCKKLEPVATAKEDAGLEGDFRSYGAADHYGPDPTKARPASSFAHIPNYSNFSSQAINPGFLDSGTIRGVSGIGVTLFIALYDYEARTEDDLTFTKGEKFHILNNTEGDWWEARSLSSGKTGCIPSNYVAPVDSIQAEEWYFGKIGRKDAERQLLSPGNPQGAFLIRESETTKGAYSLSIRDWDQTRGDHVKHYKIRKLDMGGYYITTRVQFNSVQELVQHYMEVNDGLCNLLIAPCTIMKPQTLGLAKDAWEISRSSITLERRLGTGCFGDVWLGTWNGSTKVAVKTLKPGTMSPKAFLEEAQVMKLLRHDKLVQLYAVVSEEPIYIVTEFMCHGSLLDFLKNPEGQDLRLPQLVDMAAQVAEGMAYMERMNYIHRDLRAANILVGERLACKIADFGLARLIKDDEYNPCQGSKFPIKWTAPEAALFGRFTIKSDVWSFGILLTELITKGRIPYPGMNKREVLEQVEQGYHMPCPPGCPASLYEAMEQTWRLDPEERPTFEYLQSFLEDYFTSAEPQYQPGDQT
On the procedure: as §1

Consider `COc1ccc(OC(=O)n2c(=O)oc3cc(C(C)=O)ccc32)cc1` [Compound 2], for which the “% Inhibition Point 1” value at EEF2K is on record as −64%; at CSK, −42%; at PRKX, −135%; on PRKD1 (PKC mu), −137%; on FLT3 D835Y, −41%; on FGR, 21%. In addition, the “% Inhibition Point 2” value at EEF2K is recorded as −61%; at CSK, −60%; at PRKX, −134%; on PRKD1 (PKC mu), −151%; at FLT3 D835Y, −43%; at FGR, 21%. The “% Inhibition mean” value on EEF2K is −63%; at CSK it was −51%; on PRKX it was −135%; on PRKD1 (PKC mu), −144%; at FLT3 D835Y, −42%; at FGR, 21%.

The values are drawn from patent US9573911B2, “Diphosphate mimetics and uses thereof” (President and Fellows of Harvard College, priority 2011, dated 2017).
